# Patent publication US20020052295A1, “Diacyl derivatives of propylene diamine having herbicidal activity” (priority 1999, published 2002)
# Legend:
# ABUTH = assay: Pre-emergence herbicidal activity on ABUTH (velvetleaf); assay type: in vivo, Abutilon theophrasti
# Outline: (§1)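 Whole-plant pre-emergence assay: compound diluted into 50:50 acetone:water and applied over covered seeds in sterilized soil. Growth at 30/21 °C under mist/subirrigation; inhibition vs untreated at ~14 days, reported as GR80 over rates to typically 1000 g/ha.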
# SOLNI = assay: Pre-emergence herbicidal activity on SOLNI (black nightshade); assay type: in vivo, Solanum nigrum
# Outline: as §1
# AMARE = assay: Pre-emergence herbicidal activity on AMARE (redroot pigweed); assay type: in vivo, Amaranthus retroflexus
# Outline: as §1
# DATST = assay: Pre-emergence herbicidal activity on DATST (jimsonweed); assay type: in vivo, Datura stramonium
# Outline: as §1
# CHEAL = assay: Pre-emergence herbicidal activity on CHEAL (common lambsquarters); assay type: in vivo, Chenopodium album
# Outline: as §1
# CONAR = assay: Pre-emergence herbicidal activity on CONAR (field bindweed); assay type: in vivo, Convolvulus arvensis
# Outline: as §1
# POROL = assay: Pre-emergence herbicidal activity on POROL (common purslane); assay type: in vivo, Portulaca oleracea
# Outline: as §1
# CIRAR = assay: Pre-emergence herbicidal activity on CIRAR (canada thistle, seedling); assay type: in vivo, Cirsium arvense
# Outline: as §1
# PANMI [1] = assay: Pre-emergence herbicidal activity on PANMI (wild proso millet); assay type: in vivo, Panicum miliaceum
# Outline: as §1
# SORHA [2] = assay: Pre-emergence herbicidal activity on SORHA (johnsongrass, seedling); assay type: in vivo, Sorghum halepense
# Outline: as §1
# SETFA [3] = assay: Pre-emergence herbicidal activity on SETFA (giant foxtail); assay type: in vivo, Setaria faberi
# Outline: as §1
# PANDI [4] = assay: Pre-emergence herbicidal activity on PANDI (fall panicum); assay type: in vivo, Panicum dichotomiflorum
# Outline: as §1
# BRAPP [5] = assay: Pre-emergence herbicidal activity on BRAPP (broadleaf signalgrass); assay type: in vivo, Brachiaria platyphylla
# Outline: as §1
# DIGSA [6] = assay: Pre-emergence herbicidal activity on DIGSA (large crabgrass); assay type: in vivo, Digitaria sanguinalis
# Outline: as §1
# [7] = tested on: monocotyledonous and dicotyledonous annual plant species; assay: Greenhouse pre-emergence test, all species of the test taken together; assay type: in vivo; details: acetochlor alone at 100 g/ha
# Excerpt: All such uses, and the biological activity enabling such uses, are embraced by the term “herbicidal” herein. […] Where herbicidal activity was evident but 80% inhibition was not achieved at the highest rate tested (typically 1000 g/ha), an asterisk (*) is shown in the following tables. Herbicidal activity evident in the form of symptoms of phytotoxicity, in the absence of at least 80% inhibition at any rate, is indicated in the tables by “phyto”. A blank cell in the following tables indicates no herbicidal or phytotoxic response at any rate tested.
# The pre-emergence tests were conducted by the following procedure. Topsoil was sieved to pass through a 1.27 cm screen. Fertilizer was added to the topsoil and the mixture was then sterilized by heating. The topsoil mixture was placed in a pot and compacted to a depth of 1.0 to 1.25 cm from the top of the pot. Seeds of each of several monocotyledonous and dicotyledonous annual plant species were placed on top of the soil. Additional soil was subsequently placed over the seeds to level-fill the pot. A known amount of each test compound dissolved or suspended in an appropriate organic solvent was diluted with a 50:50 mix of acetone and water and applied to the surface of the soil. After treatment the plants were placed in a greenhouse with a 30/21° C. day/night temperature regime where they received 0.64 cm of overhead irrigation. All subsequent watering consisted of a light overhead mist and/or subirrigation as needed for germination and growth.
# Pre-emergence herbicidal activity of the compound of Example 5, a racemic mixture of R- and S-enantiomers of N,N′-(1,2-propanediylbis)-3-(trifluoromethyl) benzamide, was compared with that of the individual R- and S-enantiomers, the compounds of Examples 5a and 5b respectively. The procedure was exactly as described above. Rates tested were 1000, 650, 300, 200, 100, 65, 30 and 10 g/ha.
# In a greenhouse pre-emergence test conducted according to the procedure described hereinabove, R—N,N′-(1,2-propanediylbis)-3-(trifluoromethyl)benzamide (the compound of Example 5a) was applied at 200 g/ha and acetochlor was applied at 100 g/ha, both individually and in combination.
# In the same greenhouse pre-emergence test, R-2-fluoro-3-trifluoromethyl-N-[1-methyl-2-(3-trifluoromethyl)phenylcarbonylamino]ethylbenzamide (the compound of Example 13) was applied at 100 g/ha and acetochlor was applied at 100 g/ha, both individually and in combination.
# ECHCG = assay: Post-emergence herbicidal activity on ECHCG (barnyardgrass); assay type: in vivo, Echinochloa crus-galli; details: post-emergence spray; lowest tested rate with 80% or greater inhibition; about 14 days after treatment
# Excerpt: (§2) All such uses, and the biological activity enabling such uses, are embraced by the term “herbicidal” herein. Tables 15 and 16 summarize results of tests conducted as described below to determine the pre-emergence herbicidal activity, in the form of a GR80 value, of illustrative compounds of this invention. […] Where herbicidal activity was evident but 80% inhibition was not achieved at the highest rate tested (typically 1000 g/ha), an asterisk (*) is shown in the following tables. Herbicidal activity evident in the form of symptoms of phytotoxicity, in the absence of at least 80% inhibition at any rate, is indicated in the tables by “phyto”. A blank cell in the following tables indicates no herbicidal or phytotoxic response at any rate tested.
# (§3) In another set of tests, the post-emergence activity of compounds of this invention was evaluated on the cool season species listed above. The following procedure was used.
# (§4) A pre-prepared topsoil mixture (described above) was placed in a pot and compacted to a depth of 1.0 to 1.25 cm from the top of the pot. Seeds of each of several monocotyledonous and dicotyledonous annual plant species were placed on top of the soil The seeds were covered with a mixture of 50% topsoil and 50% Rediearth™ in sufficient quantity to level-fill the pots. The pots were then placed on a greenhouse bench and subirrigated as needed until plants growing from the seeds had emerged and reached a suitable growth stage for post-emergence treatment, typically 9 to 14 days after planting.
# (§5) A known amount of each test compound dissolved or suspended in an appropriate organic solvent was diluted with a 50:50 mix of acetone and water and applied to the plants by spraying with a standard spray nozzle in a spray volume of 3,100 l/ha at a spray pressure of […] (30 psig). Control plants were not sprayed.
# (§6) After treatment the plants were placed in a greenhouse with a 30/21° C. day/night temperature regime and were subsequently watered as needed for growth. Approximately 14 days after treatment, the plants were observed and herbicidal efficacy recorded as percent inhibition by comparison with control plants.
# PANMI [8] = assay: Post-emergence herbicidal activity on PANMI (wild proso millet); assay type: in vivo, Panicum miliaceum; details: post-emergence spray; lowest tested rate with 80% or greater inhibition; about 14 days after treatment
# SORHA [9] = assay: Post-emergence herbicidal activity on SORHA (johnsongrass, seedling); assay type: in vivo, Sorghum halepense; details: post-emergence spray; lowest tested rate with 80% or greater inhibition; about 14 days after treatment
# Excerpt: as §2, §3, §4, §5, §6
# SETFA [10] = assay: Post-emergence herbicidal activity on SETFA (giant foxtail); assay type: in vivo, Setaria faberi; details: post-emergence spray; lowest tested rate with 80% or greater inhibition; about 14 days after treatment
# Excerpt: as §2, §3, §4, §5, §6
# PANDI [11] = assay: Post-emergence herbicidal activity on PANDI (fall panicum); assay type: in vivo, Panicum dichotomiflorum; details: post-emergence spray; lowest tested rate with 80% or greater inhibition; about 14 days after treatment
# Excerpt: as §2, §3, §4, §5, §6
# SORVU = assay: Post-emergence herbicidal activity on SORVU (shattercane); assay type: in vivo, Sorghum vulgare; details: post-emergence spray; lowest tested rate with 80% or greater inhibition; about 14 days after treatment
# Excerpt: as §2, §3, §4, §5, §6
# BRAPP [12] = assay: Post-emergence herbicidal activity on BRAPP (broadleaf signalgrass); assay type: in vivo, Brachiaria platyphylla; details: post-emergence spray; lowest tested rate with 80% or greater inhibition; about 14 days after treatment
# Excerpt: as §2, §3, §4, §5, §6
# DIGSA [13] = assay: Post-emergence herbicidal activity on DIGSA (large crabgrass); assay type: in vivo, Digitaria sanguinalis; details: post-emergence spray; lowest tested rate with 80% or greater inhibition; about 14 days after treatment
# [14] = applied alone at 100 g/ha, greenhouse
# [15] = pre-emergence application, acetochlor 100 g/ha alone
structure (smiles),measurement,setting,value
"CCOCN(C(=O)CCl)c1c(C)cccc1CC [Acetochlor, acetochlor, reference compound]","Percent control by pre-emergence application, ABUTH",ABUTH; [14],0%
same,Percent control ABUTH,ABUTH; [15],0%
same,"Percent control by pre-emergence application, SOLNI",SOLNI; [14],75%
same,Percent control SOLNI,SOLNI; [15],75%
same,"Percent control by pre-emergence application, AMARE",AMARE; [14],100%
same,Percent control AMARE,AMARE; [15],100%
same,"Percent control by pre-emergence application, DATST",DATST; [14],33%
same,Percent control DATST,DATST; [15],33%
same,"Percent control by pre-emergence application, CHEAL",CHEAL; [14],100%
same,Percent control CHEAL,CHEAL; [15],100%
same,"Percent control by pre-emergence application, CONAR",CONAR; [14],23%
same,Percent control CONAR,CONAR; [15],23%
same,"Percent control by pre-emergence application, POROL",POROL; [14],100%
same,Percent control POROL,POROL; [15],100%
same,"Percent control by pre-emergence application, CIRAR",CIRAR; [14],100%
same,Percent control CIRAR,CIRAR; [15],100%
same,"Percent control by pre-emergence application, PANMI",PANMI [1]; [14],83%
same,Percent control PANMI,PANMI [1]; [15],83%
same,"Percent control by pre-emergence application, SORHA",SORHA [2]; [14],83%
same,Percent control SORHA,SORHA [2]; [15],83%
same,"Percent control by pre-emergence application, SETFA",SETFA [3]; [14],100%
same,Percent control SETFA,SETFA [3]; [15],100%
same,"Percent control by pre-emergence application, PANDI",PANDI [4]; [14],100%
same,Percent control PANDI,PANDI [4]; [15],100%
same,"Percent control by pre-emergence application, BRAPP",BRAPP [5]; [14],76%
same,Percent control BRAPP,BRAPP [5]; [15],76%
same,"Percent control by pre-emergence application, DIGSA",DIGSA [6]; [14],100%
same,Percent control DIGSA,DIGSA [6]; [15],100%
same,number of the 14 species showing >85% control,[7],7
CC(CNC(=O)c1cccc(C(F)(F)F)c1)NC(=O)c1ccc(C(F)(F)F)c(F)c1 (stereo not shown) [Example 24],Post-emergence activity (GR80) ECHCG,ECHCG,phyto
same,Post-emergence activity (GR80) PANMI,PANMI [8],phyto
same,Post-emergence activity (GR80) SORHA,SORHA [9],[empty]
same,Post-emergence activity (GR80) SETFA,SETFA [10],[empty]
same,Post-emergence activity (GR80) PANDI,PANDI [11],phyto
same,Post-emergence activity (GR80) SORVU,SORVU,phyto
same,Post-emergence activity (GR80) BRAPP,BRAPP [12],phyto
same,Post-emergence activity (GR80) DIGSA,DIGSA [13],phyto
